Experimental data as given in patent US6969718B2, “17-β hydroxysteroid dehydrogenase type 3 inhibitors for the treatment of androgen dependent diseases” (Schering Corporation, priority 2001, dated 2005).

Row | SMILES | melting point
1 | CC(C)[C@H]1CN(C(C)c2ccc(Cl)cc2)CCN1C(=O)CC1CCN(C(N)=O)CC1 (stereo partly drawn) [Example 101] | 76 to 82 °C
2 | CC(=O)N1CCC(CC(=O)N2CCN(Cc3ccc(Cl)c(Cl)c3)C[C@@H]2C(C)(C)C)CC1 [Example 104] | 49 to 53 °C
3 | CC(=O)N1CCC(CC(=O)N2CCN(Cc3ccccc3-c3ccc(Cl)c(Cl)c3)C[C@@H]2C(C)(C)C)CC1 [Example 106] | 62.1 to 63.6 °C
4 | CC(=O)N1CCC(CC(=O)N2CCN(Cc3ccc(-c4ccc(Cl)c(Cl)c4)cn3)C[C@@H]2C(C)(C)C)CC1 [Example 107] | 145.7 to 147 °C
5 | CC(=O)N1CCC(CC(=O)N2CCN(C(CC3CC3)c3ccc(Cl)c(Cl)c3)C[C@@H]2C(C)(C)C)CC1 (stereo partly drawn) [Example 109] | 61 to 63 °C

Continued, values first:

Row | melting point | SMILES
6 | 61 to 65 °C | CC(=O)N1CCC(CC(=O)N2CCN(C(CC3CC3)c3ccc(Cl)c(Cl)c3)C[C@@H]2C(C)(C)C)CC1 (stereo partly drawn) [Example 110]
7 | 61 to 63 °C | CC(=O)N1CCC(CC(=O)N2CCN(C(CCC(F)(F)F)c3ccc(C(F)(F)F)cc3)C[C@@H]2C(C)(C)C)CC1 (stereo partly drawn) [Example 111]
8 | 80 to 85 °C | CC(C)(C)[C@H]1CN(Cc2ccc(Cl)c(Cl)c2)CCN1C(=O)CC1CCN(C(N)=O)CC1 [Example 113]
9 | 98.8 to 102.4 °C | CC(C)(C)[C@H]1CN(Cc2ccccc2-c2ccc(Cl)c(Cl)c2)CCN1C(=O)CC1CCN(C(N)=O)CC1 [Example 114]
10 | 95.2 to 98 °C | CC(C)(C)[C@H]1CN(Cc2ccc(-c3ccc(Cl)c(Cl)c3)cn2)CCN1C(=O)CC1CCN(C(N)=O)CC1 [Example 115]
11 | 91 to 94 °C | CC(C)(C)[C@H]1CN(C(CC2CC2)c2ccc(Cl)c(Cl)c2)CCN1C(=O)CC1CCN(C(N)=O)CC1 (stereo partly drawn) [Example 116]
12 | 76 to 80 °C | CC(C)(C)[C@H]1CN(C(CCC(F)(F)F)c2ccc(C(F)(F)F)cc2)CCN1C(=O)CC1CCN(C(N)=O)CC1 (stereo partly drawn) [Example 117]
